This passage reports IC50 results from patent US10160747B2, “Compounds and methods for kinase modulation, and indications therefor” (Plexxikon Inc., priority 2016, dated 2018).

As usually defined, the IC50 is the midpoint of a concentration-inhibition curve. A low value points to inhibition by little substance.

Sequence of CSF1R (P07333 20-972, species assumed): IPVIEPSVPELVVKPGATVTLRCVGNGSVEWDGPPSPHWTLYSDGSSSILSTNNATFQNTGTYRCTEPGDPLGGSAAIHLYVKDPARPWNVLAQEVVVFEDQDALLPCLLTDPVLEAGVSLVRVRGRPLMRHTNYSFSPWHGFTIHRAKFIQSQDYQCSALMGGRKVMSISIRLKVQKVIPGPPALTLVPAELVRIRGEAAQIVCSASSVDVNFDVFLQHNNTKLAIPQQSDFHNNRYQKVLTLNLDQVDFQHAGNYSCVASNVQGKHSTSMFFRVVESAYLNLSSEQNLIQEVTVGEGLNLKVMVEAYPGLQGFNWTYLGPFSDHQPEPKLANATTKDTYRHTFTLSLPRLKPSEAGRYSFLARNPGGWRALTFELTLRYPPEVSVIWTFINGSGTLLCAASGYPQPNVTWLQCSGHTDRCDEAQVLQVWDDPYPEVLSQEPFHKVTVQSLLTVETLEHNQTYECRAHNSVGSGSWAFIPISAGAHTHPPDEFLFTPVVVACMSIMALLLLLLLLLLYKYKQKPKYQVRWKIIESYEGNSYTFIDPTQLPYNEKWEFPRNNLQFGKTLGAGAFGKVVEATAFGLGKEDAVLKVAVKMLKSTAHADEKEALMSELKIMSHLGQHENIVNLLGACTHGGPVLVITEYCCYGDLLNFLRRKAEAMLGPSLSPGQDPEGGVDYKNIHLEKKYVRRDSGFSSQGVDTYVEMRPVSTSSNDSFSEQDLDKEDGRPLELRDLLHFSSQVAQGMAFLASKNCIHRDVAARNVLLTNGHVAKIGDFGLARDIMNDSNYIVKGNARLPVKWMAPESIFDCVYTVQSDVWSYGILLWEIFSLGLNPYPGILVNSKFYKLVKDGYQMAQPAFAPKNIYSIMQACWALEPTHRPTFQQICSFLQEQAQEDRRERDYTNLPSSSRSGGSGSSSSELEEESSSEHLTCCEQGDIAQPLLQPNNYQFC

This experiment deals with CSF1R (Homo sapiens, UniProt P07333). The experiment is described as follows: CSF1R 100 ATP 8 pt kinase assay (Table 6). The format is biochemical. The source says:
The following Table 6 provides data indicating FLT3 ITD, D835Y and F691L; c-KIT and CSF1R biochemical and/or cell inhibitory activity for exemplary compounds as described herein.
Regarding `O=C(Cc1ccc(-c2cnc3[nH]nc(C4CC4)c3c2)cc1F)Nc1cncc(C(F)(F)F)c1` [Compound P-0072, 2-[4-(3-cyclopropyl-1H-pyrazolo[3,4-b]pyridin-5-yl)-2-fluoro-phenyl]-N-[5-(trifluoromethyl)-3-pyridyl]acetamide], the IC50 lay within 0.0001 to 10 µM.
In turn, `O=C(Cc1ccc(-c2cnc3[nH]nc(C4CC4)c3c2)cc1)Nc1cncc(C(F)(F)F)c1` [Compound P-0073, 2-[4-(3-cyclopropyl-1H-pyrazolo[3,4-b]pyridin-5-yl)phenyl]-N-[5-(trifluoromethyl)-3-pyridyl]acetamide] registered an IC50 of 0.0001 to 10 µM.
The molecule `CCC(=O)c1c[nH]c2ncc(-c3ccc(CC(=O)Nc4cnc(C)c(C(F)(F)F)c4)c(F)c3)cc12` [Compound P-0070, 2-[2-fluoro-4-(3-propanoyl-1H-pyrrolo[2,3-b]pyridin-5-yl)phenyl]-N-[6-methyl-5-(trifluoromethyl)-3-pyridyl]acetamide] returned a concentration for half-maximal inhibition (IC50) of 0.0001 to 10 µM.
